Laboratory results from ChEMBL document CHEMBL5329225, “Solubilizer Tag Effect on PD-L1/Inhibitor Binding Properties for m-Terphenyl Derivatives” (ACS Med Chem Lett, 2024).
pIC50: −log10 of the molar value. The source made the active and inactive calls. The calls are words filed in the database; no cut-off is given here.

Legend:
Jurkat [1] = test: Induction of T cell activation in human Jurkat T cells overexpressing PD-1 co-cultured with Chinese hamster CHO cells overexpressing PD-L1 assessed as increase in luciferase activity incubated for 6 hrs by Bio-GloTM reagent based immune checkpoint blockade assay; format: functional
[2] = Toxicity in human Jurkat T cells overexpressing PD-1 co-cultured with Chinese hamster CHO cells overexpressing PD-L1 at 0.01 to 100 uM; format: cell-based; settings: dose 0.01-100 µM
Jurkat [3] = test: Induction of T cell activation in human Jurkat T cells overexpressing PD-1 co-cultured with Chinese hamster CHO cells overexpressing PD-L1 assessed as increase in luciferase activity at 1 uM incubated for 6 hrs by Bio-GloTM reagent based immune checkpoint blockade assay; format: functional
Jurkat [4] = test: Induction of T cell activation in human Jurkat T cells overexpressing PD-1 co-cultured with Chinese hamster CHO cells overexpressing PD-L1 assessed as increase in luciferase activity at 6.4 uM incubated for 6 hrs by Bio-GloTM reagent based immune checkpoint blockade assay; format: functional
[5] = molecular target: Programmed cell death protein 1/Programmed cell death 1 ligand 1 (Homo sapiens, UniProt Q9NZQ7); test: Inhibition of human PD-1/PDL1 interaction incubated for 1 hr by HTRF assay; format: protein-complex assay
Chain of Programmed cell death protein 1/Programmed cell death 1 ligand 1 (Q15116 whole entry): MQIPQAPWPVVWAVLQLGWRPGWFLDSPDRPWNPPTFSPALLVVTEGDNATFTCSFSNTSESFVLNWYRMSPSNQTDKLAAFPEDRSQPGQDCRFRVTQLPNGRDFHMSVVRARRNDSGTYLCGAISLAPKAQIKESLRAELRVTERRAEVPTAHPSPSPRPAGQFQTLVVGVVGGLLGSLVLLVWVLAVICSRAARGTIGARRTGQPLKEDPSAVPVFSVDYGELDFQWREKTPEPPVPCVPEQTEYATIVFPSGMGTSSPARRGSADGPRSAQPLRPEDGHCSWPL
Chain of Programmed cell death protein 1/Programmed cell death 1 ligand 1 (Q9NZQ7 whole entry): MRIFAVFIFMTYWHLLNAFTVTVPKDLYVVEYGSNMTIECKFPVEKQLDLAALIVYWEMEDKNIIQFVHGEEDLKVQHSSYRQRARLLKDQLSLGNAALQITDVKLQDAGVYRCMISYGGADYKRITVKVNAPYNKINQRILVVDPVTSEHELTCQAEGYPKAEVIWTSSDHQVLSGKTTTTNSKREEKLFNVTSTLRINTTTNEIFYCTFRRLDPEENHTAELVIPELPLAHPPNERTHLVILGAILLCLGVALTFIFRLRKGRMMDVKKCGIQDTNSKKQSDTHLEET

SMILES | Activity (Jurkat [1]) | Activity [2] | Activity (Jurkat [3]) | Activity (Jurkat [4]) | pIC50 [5]
COc1cc(-c2cccc(-c3ccc4c(c3)OCCO4)c2Cl)ccc1CN1CCC(C(=O)NCCO)C1 (stereo not given) | Dose-Dependent Effect | Toxic |  |  | 
COc1cc(-c2cccc(-c3ccc4c(c3)OCCO4)c2Cl)ccc1CN1CCC(C(=O)NCCN)C1 (stereo not given) |  |  | inactive | inactive | 
COc1cc(-c2cccc(-c3ccc4c(c3)OCCO4)c2Cl)ccc1CN1CCCC(C(=O)NC(CO)CO)C1 (stereo not given) |  |  |  |  | 8.22
COc1cc(-c2cccc(-c3ccc4c(c3)OCCO4)c2Cl)ccc1CN1CCC(C(=O)NN(C)C)C1 (stereo not given) | Dose-Dependent Effect | Toxic |  | Active | 
COc1cc(-c2cccc(-c3ccc4c(c3)OCCO4)c2Cl)ccc1CN1CCC(C(=O)NC(CO)(CO)CO)C1 (stereo not given) |  |  | inactive | inactive | 
COc1cc(-c2cccc(-c3ccc4c(c3)OCCO4)c2Cl)ccc1CN1CCC(C(=O)NC(CO)CO)C1 (stereo not given) | Dose-Dependent Effect | Toxic | inactive | Active | 
COc1cc(-c2cccc(-c3ccc4c(c3)OCCO4)c2Cl)ccc1CN1CCC(C(=O)NO)C1 (stereo not given) |  |  | inactive |  | 
